Measured values: patent publication EP4201929A1, “QUINOXALINE THIOREDOXIN REDUCTASE INHIBITORS” (geneXplain GmbH, priority 2021, dated 2023)

Legend:
[1] = test system: HCT116 cells; test: Growth suppression in the presence of antioxidant NAC; format: cell-based; conditions: HCT116, 5 mM NAC pre-treatment 16h; 2.5, 5 and 10 µM; 24h after treatment
Experimental: Cells were grown in 96-well plates at a density of 3000 cells per well with or without doxycycline and treated with compounds. After 48 hours of incubation the proliferative cell reagent resazurin (Thermo Fisher Scientific) was added to the cells. The degree of resazurin reduction, which reflects cell viability, was measured by microplate reader by monitoring the absorbance at 570 nm and 600 nm, according to the manufacturer.
To find out whether oxidative stress plays a role in cancer cell death induced by 1d*HCl, we tested the extent of growth suppression by the treatment in the presence of antioxidant N-acetyl cysteine (NAC), which neutralize ROS. We pre-treated HCT116 cells with 5 mM NAC. After 16h of incubation with NAC, we treated HCT116 cells with 2.5, 5, and 10 µM of 1d*HCl. We measured the growth suppression 24h after treatment. […] Thus, we conclude that the mechanism of cancer cell growth suppression is dependent on the induction of oxidative stress by the compounds of the present invention.

[2] = Growth suppression with selenium in culture medium; format: cell-based; conditions: selenium added to culture medium
Source text: To find out whether the inhibition of TrxRl is the major mechanism of action of 1d*HCl, we addressed the question, whether stimulation of TrxRl activity will decrease the growth suppression activity of 1d*HCl. Since TrxR is a selenium-containing enzyme and the concentration of selenium is rate-limiting for TrxRl, we added selenium to culture medium to test whether selenium will alleviate the growth suppression by 1d*HCl.

In the case of Cl.N#Cc1c(-c2cccnc2)[n+]([O-])c2cc(F)c(N3CCOCC3)cc2[n+]1[O-] [1d*HCl, 6-Fluoro-7-(morpholin-4-yl)-3-(pyridin-3-yl)quinoxaline-2-carbonitrile-1,4-dioxide hydrochloride], the “growth suppression in the presence of NAC” value [1] is reported as “almost completely abolished the growth suppression” and the “growth suppression in the presence of selenium” value [2] is reported as “less efficient”.
